Source: the supplement of paper PMC10307832

Legend:
Assay in all cases: relative viability (nuclei count vs DMSO), 5 days (fraction); higher = more cells survive
CAL-12T = test system: CAL-12T
How it was run: (§1)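 Relative viability equals treated-well nuclei counts divided by vehicle-well nuclei counts. Counts came from 4× images of lung cancer cell lines grown in 1536-well plates for 5 days after pin-tool dosing on the day after seeding. Dosing used one drug alone or a fixed anchor-drug dose plus five library-drug doses (not always all listed) in √10 steps, and values are medians of duplicate plates.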

ChaGo-K-1 = test system: ChaGo-K-1
How it was run: as §1

EMC-BAC-2 = test system: EMC-BAC-2
How it was run: as §1

HCC-366 = test system: HCC-366
How it was run: as §1

HCC-78 = test system: HCC-78
How it was run: as §1

HOP-62 = test system: HOP-62
How it was run: as §1

LC-2-ad = test system: LC-2-ad
How it was run: as §1

LK-2 = test system: LK-2
How it was run: as §1

NCI-H1355 = test system: NCI-H1355
How it was run: as §1

NCI-H1734 = test system: NCI-H1734
How it was run: as §1

NCI-H1993 = test system: NCI-H1993
How it was run: as §1

NCI-H2009 = test system: NCI-H2009
How it was run: as §1

NCI-H2085 = test system: NCI-H2085
How it was run: as §1

NCI-H2228 = test system: NCI-H2228
How it was run: as §1

NCI-H2347 = test system: NCI-H2347
How it was run: as §1

NCI-H2405 = test system: NCI-H2405
How it was run: as §1

NCI-H3122 = test system: NCI-H3122
How it was run: as §1

NCI-H596 = test system: NCI-H596
How it was run: as §1

PC-14 = test system: PC-14
How it was run: as §1

RERF-LC-KJ = test system: RERF-LC-KJ
How it was run: as §1

SK-MES-1 = test system: SK-MES-1
How it was run: as §1

SW 1573 = test system: SW 1573
How it was run: as §1

SW 900 = test system: SW 900
How it was run: as §1

## CCCCCCCCCCCC1=C(O)C(=O)C=C(O)C1=O [Embelin] + O=C(CCCCCCC(=O)Nc1ccccc1)NO [Vorinostat] (partner 1 µM)
CAL-12T; first compound 0.08 µM
  relative viability: 0.848
CAL-12T; first compound 0.8 µM
  relative viability: 0.779
CAL-12T; first compound 2.53 µM
  relative viability: 0.677
CAL-12T; first compound 8 µM
  relative viability: 0.697
ChaGo-K-1; first compound 0.08 µM
  relative viability: 0.739
ChaGo-K-1; first compound 0.8 µM
  relative viability: 0.782
ChaGo-K-1; first compound 2.53 µM
  relative viability: 0.871
ChaGo-K-1; first compound 8 µM
  relative viability: 0.755
EMC-BAC-2; first compound 0.08 µM
  relative viability: 0.344
EMC-BAC-2; first compound 0.8 µM
  relative viability: 0.561
EMC-BAC-2; first compound 2.53 µM
  relative viability: 0.257
EMC-BAC-2; first compound 8 µM
  relative viability: 0.269
HCC-366; first compound 0.08 µM
  relative viability: 0.409
HCC-366; first compound 0.8 µM
  relative viability: 0.412
HCC-366; first compound 2.53 µM
  relative viability: 0.364
HCC-366; first compound 8 µM
  relative viability: 0.268
HCC-78; first compound 0.08 µM
  relative viability: 0.467
HCC-78; first compound 0.8 µM
  relative viability: 0.547
HCC-78; first compound 2.53 µM
  relative viability: 0.553
HCC-78; first compound 8 µM
  relative viability: 0.401
HOP-62; first compound 0.08 µM
  relative viability: 0.634
HOP-62; first compound 0.8 µM
  relative viability: 0.812
HOP-62; first compound 2.53 µM
  relative viability: 0.504
HOP-62; first compound 8 µM
  relative viability: 0.527
LC-2-ad; first compound 0.08 µM
  relative viability: 0.759
LC-2-ad; first compound 0.8 µM
  relative viability: 0.695
LC-2-ad; first compound 2.53 µM
  relative viability: 0.716
LC-2-ad; first compound 8 µM
  relative viability: 0.774
LK-2; first compound 0.08 µM
  relative viability: 0.308
LK-2; first compound 0.8 µM
  relative viability: 0.28
LK-2; first compound 2.53 µM
  relative viability: 0.261
LK-2; first compound 8 µM
  relative viability: 0.307
NCI-H1355; first compound 0.08 µM
  relative viability: 0.649
NCI-H1355; first compound 0.8 µM
  relative viability: 0.699
NCI-H1355; first compound 2.53 µM
  relative viability: 0.636
NCI-H1355; first compound 8 µM
  relative viability: 0.523
NCI-H1734; first compound 0.08 µM
  relative viability: 0.868
NCI-H1734; first compound 0.8 µM
  relative viability: 0.968
NCI-H1734; first compound 2.53 µM
  relative viability: 0.929
NCI-H1734; first compound 8 µM
  relative viability: 0.749
NCI-H1993; first compound 0.08 µM
  relative viability: 0.825
NCI-H1993; first compound 0.8 µM
  relative viability: 0.772
NCI-H1993; first compound 2.53 µM
  relative viability: 0.764
NCI-H1993; first compound 8 µM
  relative viability: 0.646
NCI-H2009; first compound 0.08 µM
  relative viability: 0.748
NCI-H2009; first compound 0.8 µM
  relative viability: 0.837
NCI-H2009; first compound 2.53 µM
  relative viability: 0.705
NCI-H2009; first compound 8 µM
  relative viability: 0.748
NCI-H2085; first compound 0.08 µM
  relative viability: 0.742
NCI-H2085; first compound 0.8 µM
  relative viability: 0.932
NCI-H2085; first compound 2.53 µM
  relative viability: 0.807
NCI-H2085; first compound 8 µM
  relative viability: 0.755
NCI-H2228; first compound 0.08 µM
  relative viability: 0.407
NCI-H2228; first compound 0.8 µM
  relative viability: 0.819
NCI-H2228; first compound 2.53 µM
  relative viability: 0.36
NCI-H2228; first compound 8 µM
  relative viability: 0.85
NCI-H2347; first compound 0.08 µM
  relative viability: 0.557
NCI-H2347; first compound 0.8 µM
  relative viability: 0.628
NCI-H2347; first compound 2.53 µM
  relative viability: 0.513
NCI-H2347; first compound 8 µM
  relative viability: 0.656
NCI-H2405; first compound 0.08 µM
  relative viability: 1.01
NCI-H2405; first compound 0.8 µM
  relative viability: 1.13
NCI-H2405; first compound 2.53 µM
  relative viability: 0.95
NCI-H2405; first compound 8 µM
  relative viability: 0.899
NCI-H3122; first compound 0.08 µM
  relative viability: 0.816
NCI-H3122; first compound 0.8 µM
  relative viability: 0.999
NCI-H3122; first compound 2.53 µM
  relative viability: 1.01
NCI-H3122; first compound 8 µM
  relative viability: 0.915
NCI-H596; first compound 0.08 µM
  relative viability: 0.56
NCI-H596; first compound 0.8 µM
  relative viability: 0.73
NCI-H596; first compound 2.53 µM
  relative viability: 0.667
NCI-H596; first compound 8 µM
  relative viability: 0.495
PC-14; first compound 0.08 µM
  relative viability: 0.746
PC-14; first compound 0.8 µM
  relative viability: 0.886
PC-14; first compound 2.53 µM
  relative viability: 0.586
PC-14; first compound 8 µM
  relative viability: 0.948
RERF-LC-KJ; first compound 0.08 µM
  relative viability: 0.673
RERF-LC-KJ; first compound 0.8 µM
  relative viability: 0.769
RERF-LC-KJ; first compound 2.53 µM
  relative viability: 0.681
RERF-LC-KJ; first compound 8 µM
  relative viability: 0.603
SK-MES-1; first compound 0.08 µM
  relative viability: 1.1
SK-MES-1; first compound 0.8 µM
  relative viability: 1.2
SK-MES-1; first compound 2.53 µM
  relative viability: 1.1
SK-MES-1; first compound 8 µM
  relative viability: 0.898
SW 1573; first compound 0.08 µM
  relative viability: 0.7
SW 1573; first compound 0.8 µM
  relative viability: 1.1
SW 1573; first compound 2.53 µM
  relative viability: 0.817
SW 1573; first compound 8 µM
  relative viability: 0.716
SW 900; first compound 0.08 µM
  relative viability: 0.604
SW 900; first compound 0.8 µM
  relative viability: 0.718
SW 900; first compound 2.53 µM
  relative viability: 0.538
SW 900; first compound 8 µM
  relative viability: 0.315
